Our source for the IC50 values is patent publication US8871934B2, “Fluorene compound and pharmaceutical use thereof” (Japan Tobacco Inc., priority 2008, dated 2014).

Where two headings read alike, the source gives them in different places.

The assay deals with human PDHK2 (hPDHK2) (Homo sapiens (Human), UniProt Q15119). Nature of the assay: Inhibitory action of PDHK activity in vitro (kinase reaction, residual PDH activity measured). The format is biochemical.
Where [1] appears, read: PDHK inhibitory activity, class symbol of IC50.
[2] abbreviates: read-out: PDHK inhibitory activity IC50.
[3] abbreviates: PDHK inhibitory activity (class symbol).

For `OCC1(n2cc(-c3cc(F)cc4c3-c3ccccc3[C@]4(O)C(F)(F)F)cn2)CCCC1` (stereo in doubt) [compound 548], the IC50 runs as follows: (PDHK inhibitory activity IC50 (μmol/L)) 16 nM; under setting [1], < 100 nM.
Take `C=C(C)c1cccc2c1-c1ccccc1C2(O)C(F)(F)F` (centres unmarked) [compound 138]: the IC50 by setting is: under setting [1], > 1000 nM; under setting [2], > 10000 nM.
Take `CC(=O)N(C)CC(C)Oc1ccc2c(c1)C(O)(C(F)(F)F)c1ccccc1-2` (centres unmarked) [compound 380]: the IC50 under setting [1] is > 1000 nM and the IC50 under setting [2] amounted to 1490 nM.
Consider `OC1(C(F)(F)F)c2ccccc2-c2ncccc21` (centres unmarked) [compound 1], for which the IC50 is, setting by setting: under setting [1], > 1000 nM; under setting [2], 2210 nM.
With `Cn1cc(-c2cc(OCCN3CCCC3=O)cc3c2-c2ccccc2C3(O)C(F)(F)F)cn1` (centres unmarked) [compound 412], the IC50 was < 100 nM under setting [1] and 22 nM under setting [2].
In the case of `OC1(C(F)(F)F)c2ccccc2-c2c(-c3ccccc3)cccc21` (centres unmarked) [compound 126], the IC50 by setting is: under setting [1], > 1000 nM; under setting [2], > 10000 nM.
`OCc1cc(Cl)cc2c1-c1ccccc1C2(O)C(F)(F)F` (centres unmarked) [compound 635]: the IC50 was 100 to 1000 nM under setting [3] and 515 nM under setting [2].
For `O=C(c1cc(-c2cnn(CCO)c2)c2c(c1)C(O)(C(F)(F)F)c1ccccc1-2)N1CCC1` (centres unmarked) [compound 461], the IC50 reads like this: under setting [1], < 100 nM; under setting [2], 30 nM.
On the same counts, the results for `O=C(O)CCCOc1cc(-c2cnn(CCO)c2)c2c(c1)C(O)(C(F)(F)F)c1ccccc1-2` (centres unmarked) [compound 482] are < 100 nM and 40 nM.
On the same counts, the results for `CNC(=O)C1CN(C(=O)c2ccc3c(c2)C(O)(C(F)(F)F)c2ccccc2-3)C1` (centres unmarked) [compound 124] are 100 to 1000 nM and 736 nM.
Taken in the same sequence, the figures for `O=C(O)C1CCN(C(=O)c2ccc3c(c2)C(O)(C(F)(F)F)c2ccccc2-3)C1` (centres unmarked) [compound 217] were > 1000 nM and 5330 nM.
`Cc1cc(-c2cnn(CCCC(=O)O)c2)c2c(c1)C(O)(C(F)(F)F)c1ccccc1-2` (single isomer, unassigned; (+)) [compound 539, (+)-4-[4-(9-hydroxy-2-methyl-9-trifluoromethyl-9H-fluoren-4-yl)-pyrazol-1-yl]-butyric acid]: the IC50 under setting [1] was < 100 nM and the IC50 under setting [2] was 27 nM.
`O=C(c1cccc2c1-c1ccccc1C2(O)C(F)(F)F)N1CC1` (centres unmarked) [compound 111]: the IC50 under setting [1] was > 1000 nM and the IC50 under setting [2] is > 10000 nM.
Taken in the same sequence, the figures for `O=C1CCCN1CCOc1cc(-c2cnn(CCO)c2)c2c(c1)C(O)(C(F)(F)F)c1ccccc1-2` (centres unmarked) [compound 484] were < 100 nM and 24 nM.
For the compound `O=C1OCCN1CCOc1ccc2c(c1)C(O)(C(F)(F)F)c1ccccc1-2` (centres unmarked) [compound 459], the IC50 by setting is: under setting [1], 100 to 1000 nM; under setting [2], 185 nM.
`Cn1cc(-c2cc(-c3cnn(C)c3)c3c(c2)C(O)(C(F)(F)F)c2ccccc2-3)cn1` (centres unmarked) [compound 579]: the IC50 is < 100 nM under setting [1] and 19 nM under setting [2].
On to `Cc1ccc2c(c1)-c1ccccc1C2(O)C(F)(F)F` (centres unmarked) [compound 10], for which the IC50 under setting [1] was > 1000 nM and the IC50 under setting [2] is 30800 nM.
Take `CN(CCOc1cnc2c(c1)C(O)(C(F)(F)F)c1ccccc1-2)C(=O)CO` (centres unmarked) [compound 399]: the IC50 runs as follows: under setting [1], 100 to 1000 nM; under setting [2], 149 nM.
For the compound `O=C(O)CCCOc1cc(-c2cnco2)c2c(c1)C(O)(C(F)(F)F)c1ccccc1-2` (centres unmarked) [compound 613], the IC50 is < 100 nM under setting [3] and 76 nM under setting [2].
Taken in the same sequence, the figures for `OCCn1cc(-c2cc(CO)c3c(c2)C(O)(C(F)(F)F)c2ccccc2-3)cn1` (centres unmarked) [compound 615] were 100 to 1000 nM and 105 nM.
For the compound `O=C1OCCCN1CCOc1ccc2c(c1)C(O)(C(F)(F)F)c1ccccc1-2` (centres unmarked) [compound 470], the IC50 reads like this: under setting [1], 100 to 1000 nM; under setting [2], 168 nM.
On the same counts, the results for `O=C(NCCCCO)c1cc(-c2cncnc2)c2c(c1)C(O)(C(F)(F)F)c1ccccc1-2` (centres unmarked) [compound 371] are 100 to 1000 nM and 617 nM.
Regarding `OC1(C(F)(F)F)c2ccccc2-c2ccc(-c3cccnc3)cc21` (centres unmarked) [compound 102], the IC50 is, setting by setting: under setting [1], 100 to 1000 nM; under setting [2], 323 nM.
As for `O=C(c1ccc2c(c1)C(O)(C(F)(F)F)c1ccccc1-2)N1CCCCC1` (centres unmarked) [compound 52], the IC50 is > 1000 nM under setting [1] and 4010 nM under setting [2].
`CCc1ccc2c(c1)C(O)(C(F)(F)F)c1ccccc1-2` (centres unmarked) [compound 39]: the IC50 was > 1000 nM under setting [1] and 4520 nM under setting [2].
On the same counts, the results for `OC1(C(F)(F)F)c2ccccc2-c2cc(F)ccc21` (centres unmarked) [compound 12] are > 1000 nM and 5500 nM.
Taken in the same sequence, the figures for `NC(=O)Cc1ccc2c(c1)C(O)(C(F)(F)F)c1ccccc1-2` (centres unmarked) [compound 403] were > 1000 nM and > 10000 nM.
`Cn1cc(-c2cc(C(C)(C)O)c3c(c2)C(O)(C(F)(F)F)c2ccccc2-3)cn1` (centres unmarked) [compound 591]: the IC50 by setting is: (class symbol of IC50, read-out: PDHK inhibitory activity) > 1000 nM; under setting [2], > 1000 nM.
Consider `CC(CCOc1cc(-c2cnn(C)c2)c2c(c1)C(O)(C(F)(F)F)c1ccccc1-2)C(=O)O` (single isomer, unassigned) [compound 577], for which the IC50 by setting is: under setting [1], < 100 nM; under setting [2], 23 nM.
With `CC(C)n1cc(-c2cc(CO)c3c(c2)C(O)(C(F)(F)F)c2ccccc2-3)cn1` (centres unmarked) [compound 621], the IC50 was < 100 nM under setting [3] and 65 nM under setting [2].
For `OC1(C(F)(F)F)c2ccccc2-c2cccc(F)c21` (centres unmarked) [compound 13], the IC50 runs as follows: under setting [1], > 1000 nM; under setting [2], 15900 nM.
Turning to `Cn1cc(-c2cc(OCCO)cc3c2-c2ccccc2C3(O)C(F)(F)F)cn1` (centres unmarked) [compound 456], the IC50 was < 100 nM under setting [1] and 45 nM under setting [2].
`COC(=O)c1cc(Cl)c2c(c1)C(O)(C(F)(F)F)c1ccccc1-2` (single isomer, unassigned) [compound 647, 4-chloro-9-hydroxy-9-trifluoromethyl-9H-fluorene-2-carboxylic acid methyl ester]: the IC50 is, setting by setting: under setting [3], 100 to 1000 nM; under setting [2], 169 nM.
On the same counts, the results for `O=C1CCCN1CCCc1cc(CO)c2c(c1)C(O)(C(F)(F)F)c1ccccc1-2` (centres unmarked) [compound 656] are 100 to 1000 nM and 172 nM.
As to `NC(=O)c1cc(OCCN2CCCC2=O)cc2c1-c1ccccc1C2(O)C(F)(F)F` (centres unmarked) [compound 502], the IC50 is < 100 nM under setting [1] and 48 nM under setting [2].
Turning to `O=C(O)c1cccc(-c2ccc3c(c2)C(O)(C(F)(F)F)c2ccccc2-3)c1` (centres unmarked) [compound 155], the IC50 under setting [1] lay in the range of 100 to 1000 nM and the IC50 under setting [2] worked out at 805 nM.
On the same counts, the results for `Cc1noc(-c2cccc3c2-c2ccccc2C3(O)C(F)(F)F)n1` (centres unmarked) [compound 142] are 100 to 1000 nM and 543 nM.
For `CNC(=O)Cn1cc(-c2cc(Cl)cc3c2-c2ccccc2C3(O)C(F)(F)F)cn1` (centres unmarked) [compound 513], the IC50 reads like this: under setting [1], < 100 nM; under setting [2], 32 nM.
On the same counts, the results for `Cc1cc(C(=O)N2CCC2)cc2c1-c1ccccc1C2(O)C(F)(F)F` (centres unmarked) [compound 91] are < 100 nM and 72 nM.
On the same counts, the results for `OC1(C(F)(F)F)c2cc(Cl)ccc2-c2ccc(Cl)cc21` [compound 14] are > 1000 nM and 56600 nM.
On the same counts, the results for `NC(=O)C1CN(C(=O)c2ccc3c(c2)C(O)(C(F)(F)F)c2ccccc2-3)C1` (centres unmarked) [compound 123] are 100 to 1000 nM and 877 nM.
For the compound `CCC(=O)Nc1ccc2c(c1)-c1ccccc1C2(O)C(F)(F)F` (centres unmarked) [compound 100], the IC50 is > 1000 nM under setting [1] and 6150 nM under setting [2].
On the same counts, the results for `CC(=O)N(C)CCOc1ccc2c(c1)C(O)(C(F)(F)F)c1ccccc1-2` (centres unmarked) [compound 326] are 100 to 1000 nM and 303 nM.
As for `O=C(c1cccc2c1-c1ccccc1C2(O)C(F)(F)F)C1CC1` (centres unmarked) [compound 83], the IC50 is, setting by setting: under setting [1], > 1000 nM; under setting [2], 1140 nM.
For the compound `O=C(COc1ccc2c(c1)C(O)(C(F)(F)F)c1ccccc1-2)N1CCC(CO)CC1` (centres unmarked) [compound 397], the IC50 by setting is: under setting [1], 100 to 1000 nM; under setting [2], 424 nM.
As to `Nc1cccc2c1-c1ccccc1C2(O)C(F)(F)F` (centres unmarked) [compound 20], the IC50 under setting [1] was > 1000 nM and the IC50 under setting [2] came to 3500 nM.
In the case of `O=C(c1ccc2c(c1)C(O)(C(F)(F)F)c1ccccc1-2)N1CCC1` (centres unmarked) [compound 58], the IC50 under setting [1] fell in the range of 100 to 1000 nM and the IC50 under setting [2] is 195 nM.
On the same counts, the results for `OC1(C(F)(F)F)c2ccccc2-c2ccc(-c3ccc(F)cc3)cc21` (centres unmarked) [compound 171] are 100 to 1000 nM and 951 nM.
On the same counts, the results for `Cc1cc(-c2cnn(CCC(=O)O)c2)c2c(c1)C(O)(C(F)(F)F)c1ccccc1-2` (single isomer, unassigned; (+)) [compound 538, (+)-3-[4-(9-hydroxy-2-methyl-9-trifluoromethyl-9H-fluoren-4-yl)-pyrazol-1-yl]-propionic acid] are < 100 nM and 26 nM.
On to `OCCCCCCOc1ccc2c(c1)C(O)(C(F)(F)F)c1ccccc1-2` (centres unmarked) [compound 298], for which the IC50 is, setting by setting: under setting [1], 100 to 1000 nM; under setting [2], 177 nM.
Taken in the same sequence, the figures for `CN(C(=O)c1ccc2c(c1)C(O)(C(F)(F)F)c1ccccc1-2)c1ccccc1` (centres unmarked) [compound 56] were > 1000 nM and > 100000 nM.
On the same counts, the results for `OC1(C(F)(F)F)c2ccccc2-c2ccc(-c3cccc(Cl)c3)cc21` (centres unmarked) [compound 132] are 100 to 1000 nM and 694 nM.
Taken in the same sequence, the figures for `CC(=O)N(CCO)CCOc1ccc2c(c1)C(O)(C(F)(F)F)c1ccccc1-2` (centres unmarked) [compound 379] were 100 to 1000 nM and 351 nM.
Turning to `NC(=O)CCOc1ccc2c(c1)C(O)(C(F)(F)F)c1ccccc1-2` (centres unmarked) [compound 301], the IC50 reads like this: under setting [1], > 1000 nM; under setting [2], 1590 nM.
With `NC(=O)c1cc(-c2cncnc2)cc2c1-c1ccccc1C2(O)C(F)(F)F` (centres unmarked) [compound 658], the IC50 is, setting by setting: under setting [3], < 100 nM; under setting [2], 71 nM.
